Data from patent US10422787B2, “System and method for single molecule detection” (ARIZONA BOARD OF REGENTS on behalf of ARIZONA STATE …, priority 2015, dated 2019).

Legend:
cyclic RGD peptide [1] = test: Nanopore (approximately 12 nm) junction device functionalized with cyclic RGD peptide; format: binding
Description: Accordingly, in some embodiments, the background signal corresponds to the number of molecules adsorbed on the electrodes. This can be substantiated by collecting signals from a device small enough to allow only one integrin molecule to be trapped. In such a device, experiments were performed where the electrode edges were exposed by drilling a nanopore of approximately 12 nm diameter through the junction device. The electrodes were functionalized again with the cyclic RGD peptide. […] However, when 1 nM αVβ3 integrin is added a signal is generated (FIG. 11). […] This is because there is room for only one molecule at a time in the device, and this confirms that, in some embodiments, the background current arises from adsorption of many molecules.

cyclic RGD peptide [2] = test: Fixed-gap (5 nm) MEMED tunnel chip functionalized with cyclic RGD peptide; format: binding; set-up: signal in fixed-gap device: dose or concentration left out as unconfirmed
Description: A fixed gap tunneling device has significant advantages over STM measurements. […] It is fabricated much as described in our earlier paper. The basic fabrication of the layered device (10 nm Pd, 4 to 5 nm Al2O3 followed by 10 nm Pd, resting on top of a 25 nm SiN substrate and passivated on top with SiO2) was carried out by Norcada Inc. (Edmonton, Alberta). Our original devices had large (micron-scale) openings, but it was desired to restrict the region over which proteins could be captured to dimensions small enough that the capture of multiple molecules in the tunnel junction was unlikely (illustrated schematically by the capture of a single integrin in FIG. 16A). RIE was used to thin the underlying SiN substrate to ˜15 nm, followed by e-beam lithography using a hard mask and further RIE etching (FIG. 16C and Methods). In this way, slits were produced that were 50 to 100 nm across and up to 400 nm long, though the active area was defined by the top electrode widths of about 100 nm (FIG. 16C). After cleaning and functionalization (Methods) the device was immersed in 1 mM phosphate buffer (pH=7.4) with the electrode potentials controlled with respect to an Ag/AgCl electrode coupled via a salt bridge (SB in FIG. 16A).
Our devices often suffer from failure of the passivation layer (SiO2 in FIG. 16B) so that, even in the dilute electrolyte, leakage currents can be substantial (e.g., a few nA, FIG. 16D). […] Thus, these are currents that pass from exposed regions of the top electrodes via the electrolyte, and they are not a consequence of tunneling or electrochemical leakage across the tunnel gap itself. These leakage currents (FIG. 16D) show no distinctive features beyond the shot- and system electronic noise (distributed as a Gaussian, FIG. 16E). When […] α1β4 protein was added (FIG. 16F) the background current falls a little, presumably because of passivation of the exposed electrodes by non-specific adsorption of this protein. Once again, the signal is featureless, displaying the same intrinsic noise as observed in buffer alone (FIG. 16G). (In contrast to the STM measurements, no features have been observed in the fixed-gap devices in any measurement taken in the presence of α1β4.) However, once αVβ3 protein is added to the same device, dramatic jumps occur in the current (FIG. 16H). The background leakage current is reduced by about 20% on addition of the protein, consistent with the passivation effect seen in the macroscopic electrochemical measurements (FIGS. 14B, 14C). The signal jumps up from the baseline to two well defined levels (FIG. 16I) in this case. The states are separated by nearly 0.5 nA, corresponding to ˜1.5 nS conductance (Vt=0.3V). […]

Substance	signal in nanopore device (cyclic RGD peptide [1]; 1 nM solution)	signal in fixed-gap device (cyclic RGD peptide [2]; protein added)	fluctuating current component (cyclic RGD peptide [1]; 1 nM)	signal in undiluted Serasub (protein-free serum substitute) (cyclic RGD peptide [2]; 0.1 nM, tunneling bias 200 mV)	conductance of current jump (cyclic RGD peptide [2]; Vt=0.3V, 5 nm gap)	separation of current states (current jumps) (cyclic RGD peptide [2]; Vt=0.3V, 5 nm gap)
α4β1: homologous, weakly-binding integrin protein used as a control	no signals are generated	featureless				
αvβ3: ~200 kD αVβ3 extracelluar domain of human integrin, target protein bound by cyclic RGD peptide			about 0.2 nA	2LS signals were observed	~1.5 nS	~0.5 nA
